From patent US20180296523A1, “USE OF POLYMETHOXYLATED FLAVONES TO AMELIORATE CIRCADIAN RHYTHM DISORDERS” (THE BOARD OF REGENTS OF THE UNIVERSITY OF TEXAS SY, priority 2017, published 2018) come the findings set out here.

Structures are written as SMILES.

In assay [1] the target is T1, RORα-LBD (Homo sapiens, UniProt P35398).
T1 sequence (P35398 272-510 limits assumed): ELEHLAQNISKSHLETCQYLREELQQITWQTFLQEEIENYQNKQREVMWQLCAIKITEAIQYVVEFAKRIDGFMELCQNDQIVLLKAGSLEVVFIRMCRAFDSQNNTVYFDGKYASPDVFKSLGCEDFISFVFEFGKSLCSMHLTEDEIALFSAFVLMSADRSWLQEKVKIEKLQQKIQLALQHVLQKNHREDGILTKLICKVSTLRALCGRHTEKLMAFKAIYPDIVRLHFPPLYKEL
Kind of assay: Radioligand receptor binding assay with 25-[3H]-OHC, RORα-LBD. Conditions: for competitive binding to RORα-LBD: in the presence of 4.5 nM 25-[3H]-OHC. How it is done:
(§1) Ligand binding was determined by filter binding assays to calculate the Kd value. […] Ki was determined using the Cheng-Prusoff equation.

Assay [2] has as its target T2, GAL4 DBD-RORα LBD (Mus musculus, UniProt P51448).
T2 construct: mouse RORα-LBD (aa 261-523); expressed in transfected cells; host or cells: HEK293T
T2 sequence (P51448 261-523): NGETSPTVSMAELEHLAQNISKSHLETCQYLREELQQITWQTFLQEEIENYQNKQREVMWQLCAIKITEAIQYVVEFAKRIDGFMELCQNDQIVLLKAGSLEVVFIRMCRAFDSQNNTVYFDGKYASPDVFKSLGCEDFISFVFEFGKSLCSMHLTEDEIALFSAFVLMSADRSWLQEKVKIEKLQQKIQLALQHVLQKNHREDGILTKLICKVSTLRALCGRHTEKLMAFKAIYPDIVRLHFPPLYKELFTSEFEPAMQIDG
Kind of assay: Mammalian one-hybrid reporter assay in HEK293T cells, GAL4-RORα. As to conditions: ligand interaction reduces transcriptional activity. Type of assay: cell-based. An excerpt:
(§2) Plasmids containing the retinoic acid-related orphan receptor response element (RORE) from mouse Bmal1 promoter, pcDNA3.1B-G4DBD-RORαLBD and pcDNA3.1BG4DBD-RORγLBD were constructed in our lab. Specifically, the 1960 bp sequences (−1830/+130) of the mouse Bmal1 promoter harboring either WT ([…] (SEQ ID NO:1) and […] (SEQ ID NO:2)) or mutant ([…] (SEQ ID NO:3)) RORE were PCR amplified from mouse genomic DNA and cloned into pGL3-promoter luciferase vector. For expression of RORα or RORγ-GAL4 protein, mouse RORα-LBD (aa 261-523) or RORγ-LBD (aa 250-516) were PCR amplified from mouse genomic DNA and cloned into a GAL4-DBD-containing vector, pcDNA3.1B.
(§3) For mammalian one-hybrid assays, HEK293T cells were cotransfected with pcDNA3.1B-G4DBD-RORα/γLBD, pGL4.31 and TK promoter Renilla luciferase construct (tK.pRL). To investigate the regulation of the Bmal1 reporter, Hepa1-6 cells were cotransfected with Bmal1-WT or mutant RORE reporter plasmids, RORα, RORγ or Rev-erbα expression construct along with tK.pRL. Mouse and human siRNA targeting RORα and RORγ were purchased from Santa Cruz. Transfection was performed by Lipfectamine 2000 reagent (Invitrogen) Twenty-four hours after transfection, the cells were treated with vehicle or NOB. Lysates were collected 24 h after treatment, and firefly and Renilla luciferase activities were measured by using a Dual-Luciferase Reporter System (Promega).
(§4) For radio-ligand receptor binding assays, previously described protocols with minor modifications (Kumar et al., 2010; Wang et al., 2010b) were adopted.
For orientation: In a reporter assay the amount or activity of a reporter protein is the signal.

Assay [3] addresses T3, GAL4 DBD-RORγ LBD (Mus musculus, UniProt P51450).
T3 construct: RORγ-LBD (aa 250-516); expressed in transfected cells; host or cells: HEK293T
T3 sequence (P51450 250-516): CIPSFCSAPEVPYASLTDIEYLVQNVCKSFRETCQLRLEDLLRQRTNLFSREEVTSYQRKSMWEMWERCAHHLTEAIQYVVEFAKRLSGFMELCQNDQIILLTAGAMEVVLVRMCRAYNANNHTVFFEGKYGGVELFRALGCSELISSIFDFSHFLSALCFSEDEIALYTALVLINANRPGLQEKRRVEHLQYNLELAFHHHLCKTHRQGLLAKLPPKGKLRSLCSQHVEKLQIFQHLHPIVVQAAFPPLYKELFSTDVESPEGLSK
Kind of assay: Mammalian one-hybrid reporter assay in HEK293T cells, GAL4-RORγ. As to conditions: ligand interaction reduces transcriptional activity. Format: cell-based.
Excerpt: as §2, §3, §4

Assay [4] relates to Clock^Δ19/+ PER2::Luc reporter cells. As to the kind of experiment: High-throughput chemical screen, PER2::Luc reporter rhythm. Format: cell-based, mouse. Conditions: for PER2::Luc reporter rhythm / circadian amplitude: Clock^Δ19/+ cells, forskolin pre-stimulated. How it is done:
Specifically, the chemical screen for circadian clock modulators was conducted at the Chemical Genomics Core facility at the University of Texas Health Science Center at Houston (UTHSC-H). The in-house chemical library screened consisted of compounds from the National Institutes of Health (NIH) Clinical Collection, National Cancer Institute collection, and Microsource Spectrum Collection. Screening was conducted largely on the basis of the protocol previously described (Chen et al., 2012). […] Upon confluency, cells were incubated with 5 μM forskolin for 1-2 hr, followed by the addition of chemical compounds to the plates with robotic arms (Beckman), and then subjected to continuous monitoring over several days in a temperature-controlled EnVision microplate reader (Perkin Elmer). Data analysis was carried out by using the MultiCycle software (Actimetrics) for measurement of period, phase, and amplitude. The chemical screen for circadian clock modulators was conducted at the Chemical Genomics Core facility at the UTHSC-H. The in-house chemical library screened consists of compounds from NIH Clinical Collection, NCI collection and Microsource Spectrum Collection. The screening was conducted largely based on the protocol previously described (Chen et al., 2012). […] Cells were then incubated with 5 μM forskolin for 1-2 h followed by the addition of chemical compounds to the plates with robotic arms (Beckman), and then subjected to continuous monitoring over several days in a temperature-controlled EnVision microplate reader (Perkin Elmer). Data analysis was carried out by using the MultiCycle software (Actimetrics) for measurement of period, phase, and amplitude. […] Tissue explant experiments were conducted as described previously (Chen et al., 2012).

For assay [5], the target named is T4, RORγ-LBD (Homo sapiens, UniProt P51449).
T4 sequence (P51449 269-508 limits assumed): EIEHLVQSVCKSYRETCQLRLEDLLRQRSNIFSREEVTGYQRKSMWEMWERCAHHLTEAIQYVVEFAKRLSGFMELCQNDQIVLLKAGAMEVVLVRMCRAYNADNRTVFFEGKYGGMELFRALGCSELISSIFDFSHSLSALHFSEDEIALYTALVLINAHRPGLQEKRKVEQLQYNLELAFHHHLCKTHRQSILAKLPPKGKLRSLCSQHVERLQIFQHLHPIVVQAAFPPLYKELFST
Kind of assay: Radioligand receptor binding assay with 25-[3H]-OHC, RORγ-LBD. Conditions: in the presence of 4.5 nM 25-[3H]-OHC. As for the experimental part:
as §1

Assay [6] concerns PER2::LucSV reporter fibroblast cells. Kind of assay: Dose response validation of reporter rhythm in PER2::LucSV cells. As to conditions: PER2::LucSV reporter cells. Type of assay: cell-based, mouse. As for the experimental part: The chemical screen for circadian clock modulators was conducted at the Chemical Genomics Core facility at the UTHSC-H. The in-house chemical library screened consists of compounds from NIH Clinical Collection, NCI collection and Microsource Spectrum Collection. The screening was conducted largely based on the protocol previously described (Chen et al., 2012). […] Cells were then incubated with 5 μM forskolin for 1-2 h followed by the addition of chemical compounds to the plates with robotic arms (Beckman), and then subjected to continuous monitoring over several days in a temperature-controlled EnVision microplate reader (Perkin Elmer). Data analysis was carried out by using the MultiCycle software (Actimetrics) for measurement of period, phase, and amplitude. […] Tissue explant experiments were conducted as described previously (Chen et al., 2012).

With `C[C@H](CCCC(C)(C)O)[C@H]1CC[C@H]2[C@@H]3CC=C4C[C@@H](O)CC[C@]4(C)[C@H]3CC[C@]12C` [25-[3H]—OHC, 25-[3H]-hydroxycholesterol], the “total number of binding sites (Bmax)” value in assay [1] (Scatchard plot, RORα) is on record as 100 fmol/mg of protein.
As for `CC(=O)Nc1nc(C)c(S(=O)(=O)Nc2ccc(C(O)(C(F)(F)F)C(F)(F)F)cc2)s1` [SR1001], the “activity on GAL4-RORα chimeric receptor” value in assay [2] is given as “robust activities”. In assay [3], the “activity on GAL4-RORγ chimeric receptor” value is reported as “robust activities”.
With `O=C1C[C@@H](c2ccc(O)cc2)Oc2cc(O)cc(O)c21` [naringenin], the “PER2::Luc reporter rhythm / circadian amplitude” value in assay [4] is “failed to enhance cellular circadian rhythms”. For the same compound, the reporter luminescence entry in assay [4] (PER2::LUC Clock^Δ19/+ reporter cells) and in assay [6] was “did not enhance the reporter luminescence” in each case. In addition, the figures for the “competitive binding to RORγ-LBD” value in assay [5] and in assay [5] (listed as Naringenin) were “no direct binding” and “markedly diminished binding”, respectively. Also, the “competitive binding to RORα-LBD” value is reported as “no direct binding” in assay [1] and “markedly diminished binding” in assay [1] (listed as Naringenin).
In the case of `COc1ccc(-c2cc(=O)c3c(OC)c(OC)c(OC)c(OC)c3o2)cc1` [tangeretin], the “PER2::Luc reporter rhythm / circadian amplitude” value in assay [4] is “similarly enhanced the PER2::Luc reporter rhythm”.
